The source of these data is BindingDB's records for patent US20250051319 (Augustine Therapeutics, 2025).

Assay [1] has as its target T1, Histone deacetylase 6 (Homo sapiens, UniProt Q9UBN7).
T1 sequence (Q9UBN7 whole entry): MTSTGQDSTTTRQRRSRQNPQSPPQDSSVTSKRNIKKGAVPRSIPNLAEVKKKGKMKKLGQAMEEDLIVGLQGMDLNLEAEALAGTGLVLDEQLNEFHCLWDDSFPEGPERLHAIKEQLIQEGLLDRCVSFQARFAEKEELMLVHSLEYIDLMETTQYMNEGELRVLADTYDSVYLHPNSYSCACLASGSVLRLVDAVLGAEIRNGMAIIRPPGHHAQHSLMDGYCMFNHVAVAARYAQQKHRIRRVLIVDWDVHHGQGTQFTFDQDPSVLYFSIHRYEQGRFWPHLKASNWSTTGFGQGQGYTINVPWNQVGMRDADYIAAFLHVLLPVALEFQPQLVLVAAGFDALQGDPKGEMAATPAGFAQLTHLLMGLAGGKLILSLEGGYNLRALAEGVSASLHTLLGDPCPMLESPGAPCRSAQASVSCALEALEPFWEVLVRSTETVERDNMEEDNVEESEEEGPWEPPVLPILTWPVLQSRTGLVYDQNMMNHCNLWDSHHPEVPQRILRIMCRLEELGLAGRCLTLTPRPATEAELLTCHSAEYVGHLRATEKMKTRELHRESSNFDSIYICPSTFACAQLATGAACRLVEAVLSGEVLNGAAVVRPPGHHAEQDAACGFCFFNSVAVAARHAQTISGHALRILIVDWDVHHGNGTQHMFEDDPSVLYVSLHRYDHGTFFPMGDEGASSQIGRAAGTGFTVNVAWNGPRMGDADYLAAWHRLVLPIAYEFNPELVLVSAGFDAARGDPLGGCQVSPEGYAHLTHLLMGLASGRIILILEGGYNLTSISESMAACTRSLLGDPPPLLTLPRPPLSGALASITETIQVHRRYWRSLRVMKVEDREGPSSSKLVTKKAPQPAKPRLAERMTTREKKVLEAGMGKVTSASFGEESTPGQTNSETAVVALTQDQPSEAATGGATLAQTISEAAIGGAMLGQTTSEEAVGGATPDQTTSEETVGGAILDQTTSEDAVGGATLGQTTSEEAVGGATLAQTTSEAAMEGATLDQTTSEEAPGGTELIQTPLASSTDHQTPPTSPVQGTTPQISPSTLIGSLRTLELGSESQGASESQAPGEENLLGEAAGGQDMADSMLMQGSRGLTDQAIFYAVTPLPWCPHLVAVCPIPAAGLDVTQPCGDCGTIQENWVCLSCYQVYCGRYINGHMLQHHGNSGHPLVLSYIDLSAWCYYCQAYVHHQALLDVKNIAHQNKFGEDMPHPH
As to the kind of experiment: HDAC6 Enzymatic Activity Assay. The method, then:
Dose response testing of HDAC6 and HDAC 1 were run at Reaction Biology Corporation (RBC). […] 2× enzyme was delivered in the wells of the reaction plate except for the “no enzyme” control wells. In the latter, buffer was added. Compounds in 100% DMSO were delved into the enzyme mixture by acoustic technology (Echo550). Plates are spun down and compounds were incubation with the enzyme for 10 min at room temperature. […] Developer containing Trichostatin A was added to stop the reaction and generate fluorescent color. A kinetic measurement was carried out for 20 min with 5 min interval on the Envision plate reader (Perkin Elmer, Ex/Em=360/460). End point reading i.e., plateau of the development reaction was used for analysis. Data was reported by RBC as percentage enzyme activity. Percentage inhibition was calculated by subtracting percentage enzyme activity from 100. IC50 values were calculated using GraphPad Prism 9 based on the log(inhibitor) vs. response—Variable slope (four parameters) equation.

For assay [2], the target named is T2, Histone deacetylase 6 [482-800] (Homo sapiens, UniProt Q9UBN7).
T2 construct: 482-800
T2 sequence (Q9UBN7 whole entry): T1 sequence (Q9UBN7 whole entry)
As to the kind of experiment: Cellular Target Engagement Assay. The method, then:
NanoBRET target engagement was performed against the catalytic domain 2 (CD2) of HDAC6, with minor modifications of kit manufacturer protocol (Promega). Expression of exogenous NanoLuc-HDAC6(CD2) fusion and in HEK293T was achieved following transient transfection with FuGENE HD Transfection Reagent (Promega). […] Compounds (dissolved in 100% DMSO) or DMSO (vehicle) were added either manually by diluting them in culture medium at 8× final assay concentration and then adding 5 μL to assay plate or in an automated way by adding 160 nL compound to 5 μL OptiMEM without phenol red (Gibco) using the Echo650 (Labcyte). Tracer solution was added to the cells before seeding 35 μL cell/tracer mixture in the assay plate. […] Assay plates were incubated at 37° C. in a humidified atmosphere containing 5% C02 for 2 hours. […] BRET ratios were calculated from acceptor/donor signal ratio (mBRET=acceptor/donor*1000) and normalized for each plate. Percentage inhibition was calculated by setting the mBRET obtained with cells without tracer to 100%, while the mBRET obtained with uninhibited cells with tracer was set to 0%. IC50-values were calculated from the percentage inhibition with the log(inhibitor) vs. response—Variable slope (four parameters) nonlinear regression in GraphPad Prism software.

Broadly, the IC50 is the concentration at which inhibition is half-maximal. Low readings indicate inhibition by little substance, high ones a need for much substance. `COCC(=O)NCc1ccc(C(=O)CSc2nc(C)nc3ncc(OC)cc23)s1` [US20250051319, Compound 163] yielded an IC50 in assay [1] below 100 nM.

In the case of `O=C(CSc1nc(C(F)(F)F)nc2ncccc12)c1ccc(CN2CC[C@@H](O)C2=O)s1` [US20250051319, Compound 155], the IC50 in assay [2] is below 100 nM.
